The values that follow come from article PMC8838197, “Coumarin-Resveratrol-Inspired Hybrids as Monoamine Oxidase B Inhibitors: 3-Phenylcoumarin versus trans-6-Styrylcoumarin” (Molecules, 2022).

The structures appear in SMILES notation. Like-named read-outs stand apart in the source and are kept apart here.

Series [1] has as its target T1, hMAO-B (Homo sapiens, UniProt P27338).
T1 sequence (P27338 1-520): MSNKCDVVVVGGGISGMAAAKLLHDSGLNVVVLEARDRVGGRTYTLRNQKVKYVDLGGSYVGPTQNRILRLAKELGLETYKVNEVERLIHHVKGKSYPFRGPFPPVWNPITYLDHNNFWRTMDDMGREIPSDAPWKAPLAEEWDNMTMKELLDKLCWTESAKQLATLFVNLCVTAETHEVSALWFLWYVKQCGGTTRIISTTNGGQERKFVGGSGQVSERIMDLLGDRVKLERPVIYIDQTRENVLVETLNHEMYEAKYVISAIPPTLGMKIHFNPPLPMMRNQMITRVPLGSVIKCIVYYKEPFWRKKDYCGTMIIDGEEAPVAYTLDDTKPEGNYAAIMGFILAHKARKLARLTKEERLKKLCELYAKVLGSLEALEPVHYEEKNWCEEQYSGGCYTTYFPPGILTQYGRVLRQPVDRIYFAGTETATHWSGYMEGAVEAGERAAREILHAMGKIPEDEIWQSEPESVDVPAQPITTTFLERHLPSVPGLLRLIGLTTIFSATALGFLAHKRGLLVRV
Put plainly: hMAO-B inhibition, Amplex Red MAO assay, recombinant enzyme.

Series [2] concerns the target T2, hMAO-A (Homo sapiens, UniProt P21397).
T2 sequence (P21397 1-527): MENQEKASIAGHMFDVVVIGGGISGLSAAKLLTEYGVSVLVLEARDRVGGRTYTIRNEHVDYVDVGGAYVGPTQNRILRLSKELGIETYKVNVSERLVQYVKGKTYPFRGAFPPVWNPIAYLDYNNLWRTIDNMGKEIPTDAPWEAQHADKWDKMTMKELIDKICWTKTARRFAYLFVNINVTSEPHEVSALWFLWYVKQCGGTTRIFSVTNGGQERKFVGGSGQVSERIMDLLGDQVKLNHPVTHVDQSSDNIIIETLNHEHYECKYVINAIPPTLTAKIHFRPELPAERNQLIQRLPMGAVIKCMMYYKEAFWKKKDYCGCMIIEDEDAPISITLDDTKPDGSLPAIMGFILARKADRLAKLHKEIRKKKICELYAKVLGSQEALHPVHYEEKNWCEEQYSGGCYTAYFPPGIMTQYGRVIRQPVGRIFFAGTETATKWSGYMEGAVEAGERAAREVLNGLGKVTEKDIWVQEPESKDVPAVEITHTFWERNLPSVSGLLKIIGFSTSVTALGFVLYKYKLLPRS
The experiment in a line: hMAO-A inhibition, Amplex Red MAO assay, recombinant enzyme.

For series [3], the system named is MAO-A. As to conditions: cited from earlier work; for pIC50 MAO-A: Table S8; for MAO-A pIC50: data set compounds.
In series [4] the test system is MAO-B. Details: pIC50 MAO-B: unit not given here. The note with it: cited from earlier work.

Broadly, the IC50 is the concentration at which inhibition is half-maximal. In the case of `O=c1oc2ccccc2cc1-c1ccccc1` [3-Phenylcoumarin], in series [1], the “S.I. (hMAO-B selectivity index = IC50 (hMAO-A)/IC50 (hMAO-B))” value was above 8.47. Further, in series [1] (Table 3), the “pIC50 MAO-B Exp.” value was found to be 4.928. The IC50 is 11.8 µM in series [1] (read-out: IC50 hMAO-B, recombinant hMAO-B expressed in baculovirus-infected BTI insect cells, n = 5) and above 100 µM in series [2].

Consider `O=C(O)COc1ccc2oc(=O)c(-c3ccc(Br)cc3)cc2c1` [Compound 73], for which, in series [3], the “pIC50 MAO-A” value is listed as 4.898 and the “MAO-A pIC50” value is below 5.0. In addition, the “pIC50 MAO-B” value in series [4] (Table S8) is 8.154. Besides, the “MAO-B pIC50” value in series [4] (data set compounds) is given as above 6.5.

With `O=c1oc2ccc3ccccc3c2cc1-c1ccc(O)cc1` [Compound 81], in series [3], the “pIC50 MAO-A” value was 4.626. In addition, the “pIC50 MAO-B” value in series [4] (Table S8) is reported as 6.337.

For `O=c1oc2ccc3ccccc3c2cc1-c1cccc(O)c1` [Compound 82], the “pIC50 MAO-A” value in series [3] is listed as 4.591. For the same compound, the “Experimental pIC50 (MAO-A inhibitors)” value in series [3] (Table S12) was 4.354. In addition, the “pIC50 MAO-B” value in series [4] (Table S8) was 5.296.

As to `Cc1ccc2oc(=O)c(-c3ccc([N+](=O)[O-])cc3)cc2c1` [Compound 88], the “pIC50 MAO-A” value in series [3] is recorded as 5.379. In addition, the “pIC50 MAO-B” value in series [4] (Table S8) is given as 8.678.

For `O=c1oc2cc(O)ccc2cc1-c1ccsc1` [Compound 143], the “pIC50 MAO-A” value in series [3] is 5.118. Also, the “pIC50 MAO-B” value in series [4] (Table S8) is on record as 5.071.

In the case of `O=c1oc2c(O)c(O)ccc2cc1-c1ccsc1` [Compound 144], the “pIC50 MAO-A” value in series [3] is recorded as 5.879. Further, in series [4] (Table S8), the “pIC50 MAO-B” value was 5.323.

Take `O=c1oc2cc(O)ccc2cc1-c1cc(Br)cs1` [Compound 146]: in series [3], the “pIC50 MAO-A” value was 5.038. The “pIC50 MAO-B” value in series [4] (Table S8) was 6.854.

On to `O=c1oc2c(O)c(O)ccc2cc1-c1cc(Br)cs1` [Compound 147], for which, in series [3], the “pIC50 MAO-A” value is 5.216. Moreover, the “pIC50 MAO-B” value in series [4] (Table S8) is listed as 4.663.

For `Cc1cc(=O)oc2cc(NC(=O)C(C)C)ccc12` [Compound 155], the “pIC50 MAO-A” value in series [3] was 4.611. For the same compound, in series [4] (Table S8), the “pIC50 MAO-B” value is given as 4.937.

On to `Cc1cc(=O)oc2cc(NC(=O)CC(C)C)ccc12` [Compound 156], for which the “pIC50 MAO-A” value in series [3] was 4.339. Also, the “pIC50 MAO-B” value in series [4] (Table S8) is 6.357.

Turning to `Cc1cc(=O)oc2cc(NC(=O)CBr)ccc12` [Compound 158], in series [3], the “pIC50 MAO-A” value was 4.107 and the “MAO-A pIC50” value is given as below 5.0. In addition, in series [4] (Table S8), the “IC50 MAO-B” value was “In” and the “pIC50 MAO-B” value was “In”.

`Cc1cc(=O)oc2cc(NC(=O)c3ccco3)ccc12` [Compound 163]: in series [3], the “pIC50 MAO-A” value was 4.521 and the “MAO-A pIC50” value is reported as below 5.0. In series [4] (Table S8), the “pIC50 MAO-B” value is 5.3.

One may read the melting point as the temperature, or range, at which the solid turns liquid. `O=c1ccc2cc(/C=C/c3ccccc3)ccc2o1` [trans-6-Styrylcoumarin] had a melting point of 134 to 135 °C. Besides, in series [1], the 50% inhibitory concentration (IC50) is 0.11 µM and the “S.I. (hMAO-B selectivity index = IC50 (hMAO-A)/IC50 (hMAO-B))” value is given as above 909.09. In series [1] (comparison with ref 13), the “times more active on MAO-B than the best compound of the resveratrol derivative series of Kong et al.” value is on record as 110. Further, in series [1] (ratio of IC50), the “times more active on MAO-B than 3-phenylcoumarin” value is 107 and the “times more active on MAO-B than trans-resveratrol” value came to 267. Further, the IC50 in series [2] is above 100 µM.
